Reference: publication PMC11022890 (Drug Metabolism and Disposition, 2021)

Experiments:
[1] = molecular target: T1, UGT1A9 in human kidney microsomes (Homo sapiens, UniProt O60656); test: Inhibition of acetaminophen glucuronidation; conditions: HKM
T1 sequence (O60656 26-530): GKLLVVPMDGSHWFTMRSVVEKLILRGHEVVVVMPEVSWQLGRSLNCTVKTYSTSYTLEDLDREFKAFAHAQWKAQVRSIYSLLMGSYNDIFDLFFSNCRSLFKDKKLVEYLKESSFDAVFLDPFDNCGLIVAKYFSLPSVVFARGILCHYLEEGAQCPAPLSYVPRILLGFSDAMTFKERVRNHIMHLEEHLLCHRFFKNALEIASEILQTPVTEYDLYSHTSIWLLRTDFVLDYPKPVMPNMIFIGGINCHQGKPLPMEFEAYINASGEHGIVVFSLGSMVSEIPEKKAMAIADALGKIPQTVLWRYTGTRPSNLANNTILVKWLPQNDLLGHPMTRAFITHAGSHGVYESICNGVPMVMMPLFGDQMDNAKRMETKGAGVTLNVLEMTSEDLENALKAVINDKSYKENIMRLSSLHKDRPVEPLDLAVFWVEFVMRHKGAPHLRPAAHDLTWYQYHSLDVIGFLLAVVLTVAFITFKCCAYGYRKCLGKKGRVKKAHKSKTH

Nonspecific binding [2] = type: in vitro ADME; conditions: human, incubation mixture with human liver microsomes
Nonspecific binding [3] = type: in vitro ADME; conditions: human
UGT2B15 = molecular target: T2, UGT2B15 (Homo sapiens, UniProt P54855); test: Screening: inhibition of oxazepam glucuronidation in rUGT2B15 microsomes; type: in vitro ADME; conditions: 10 or 100 µM
T2 sequence (P54855 24-530): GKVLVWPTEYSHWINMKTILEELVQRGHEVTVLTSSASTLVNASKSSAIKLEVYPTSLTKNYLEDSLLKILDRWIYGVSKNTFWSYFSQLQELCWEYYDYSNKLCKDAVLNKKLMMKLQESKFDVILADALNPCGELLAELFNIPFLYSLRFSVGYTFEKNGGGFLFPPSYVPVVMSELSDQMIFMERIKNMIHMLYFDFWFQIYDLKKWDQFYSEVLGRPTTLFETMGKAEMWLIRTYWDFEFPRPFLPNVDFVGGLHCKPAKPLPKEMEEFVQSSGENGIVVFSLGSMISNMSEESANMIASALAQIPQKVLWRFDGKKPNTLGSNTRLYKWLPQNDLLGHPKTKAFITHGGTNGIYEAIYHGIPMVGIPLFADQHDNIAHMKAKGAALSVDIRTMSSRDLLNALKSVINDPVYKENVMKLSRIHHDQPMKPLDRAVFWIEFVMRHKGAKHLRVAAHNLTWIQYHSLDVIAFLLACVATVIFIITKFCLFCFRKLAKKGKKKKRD

UGT1A9 = molecular target: T3, UGT1A9 (Homo sapiens, UniProt O60656); test: Inhibition of acetaminophen glucuronidation in rUGT1A9 microsomes; type: in vitro ADME; conditions: IC50, probe substrate acetaminophen
T3 sequence (O60656 26-530): T1 sequence (O60656 26-530)

Nonspecific binding [4] = type: in vitro ADME; conditions: human, incubation mixture with human kidney microsomes
UGT2B10 = molecular target: T4, UGT2B10 (Homo sapiens, UniProt P36537); test: Screening: inhibition of nicotine glucuronidation in rUGT2B10 microsomes; type: in vitro ADME; conditions: 100 µM
T4 sequence (P36537 24-528): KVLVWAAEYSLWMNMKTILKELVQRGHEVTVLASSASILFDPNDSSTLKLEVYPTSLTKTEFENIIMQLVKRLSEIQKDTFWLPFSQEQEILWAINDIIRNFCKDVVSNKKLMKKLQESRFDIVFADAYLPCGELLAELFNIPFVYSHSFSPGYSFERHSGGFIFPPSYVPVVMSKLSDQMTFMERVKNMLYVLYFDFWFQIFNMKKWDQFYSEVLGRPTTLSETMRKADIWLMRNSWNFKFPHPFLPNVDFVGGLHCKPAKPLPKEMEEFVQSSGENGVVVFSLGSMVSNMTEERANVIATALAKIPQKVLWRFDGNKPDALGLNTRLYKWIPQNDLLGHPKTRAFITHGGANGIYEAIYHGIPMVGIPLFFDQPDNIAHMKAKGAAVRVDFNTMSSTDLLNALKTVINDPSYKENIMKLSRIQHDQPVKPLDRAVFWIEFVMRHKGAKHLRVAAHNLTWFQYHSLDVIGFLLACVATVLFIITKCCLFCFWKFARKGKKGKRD

[5] = 400 mg oral dose; ref Manini et al., 2015; cited from earlier work
[6] = molecular target: T5, UGT1A6 in human kidney microsomes (Homo sapiens, UniProt P19224); test: Inhibition of serotonin glucuronidation; conditions: HKM
T5 sequence (P19224 27-532): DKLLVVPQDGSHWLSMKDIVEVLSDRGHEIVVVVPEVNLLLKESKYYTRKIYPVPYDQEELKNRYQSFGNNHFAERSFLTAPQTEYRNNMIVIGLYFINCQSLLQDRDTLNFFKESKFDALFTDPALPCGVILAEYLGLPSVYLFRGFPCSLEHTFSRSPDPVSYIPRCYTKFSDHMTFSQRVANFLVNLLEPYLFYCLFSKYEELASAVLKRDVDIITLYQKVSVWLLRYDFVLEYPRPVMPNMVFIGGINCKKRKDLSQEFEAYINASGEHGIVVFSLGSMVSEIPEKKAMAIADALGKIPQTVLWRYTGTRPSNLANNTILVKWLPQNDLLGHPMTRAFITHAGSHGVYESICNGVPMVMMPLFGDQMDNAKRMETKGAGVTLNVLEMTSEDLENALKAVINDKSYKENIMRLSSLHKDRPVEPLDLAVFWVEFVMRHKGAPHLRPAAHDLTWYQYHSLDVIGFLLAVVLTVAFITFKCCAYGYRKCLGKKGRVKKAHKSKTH

[7] = molecular target: T6, UGT1A6 in human liver microsomes (Homo sapiens, UniProt P19224); test: Inhibition of serotonin glucuronidation; conditions: HLM
T6 sequence (P19224 27-532): T5 sequence (P19224 27-532)

[8] = IC50, probe substrate acetaminophen
[9] = IC50,u (binding-corrected IC50), probe substrate acetaminophen
[10] = IC50, probe substrate serotonin
[11] = IC50,u (binding-corrected IC50), probe substrate serotonin

| Compound | IC50 [1, 8] [µM] | IC50 [1, 9] [µM] | fraction unbound (Nonspecific binding [2]) | fraction unbound (Nonspecific binding [3]) | inhibition in screening (in words) (UGT2B15) | IC50 (UGT1A9) [µM] | fraction unbound (Nonspecific binding [4]) | inhibition vs control without cannabinoid (UGT2B10) [%] | average plasma level [5] [µg/L] | IC50 [6, 10] [µM] | IC50 [6, 11] [µM] | IC50 [7, 10] [µM] | IC50 [7, 11] [µM] |
| --- | --- | --- | --- | --- | --- | --- | --- | --- | --- | --- | --- | --- | --- |
| CCCCCc1cc(O)c2c(c1)OC(C)(C)c1ccc(C)cc1-2 [CBN, cannabinol] | 21 ± 3.4 | 2.6 ± 0.41 | 0.092 ± 0.006 | 0.085 ± 0.005 | no significant inhibition | 6.9 ± 0.54 | 0.12 ± 0.015 | 47 | – | – | – | – | – |
| C=C(C)[C@@H]1CCC(C)=C[C@H]1c1c(O)cc(CCCCC)cc1O [CBD, cannabidiol] | 3.8 ± 0.82 | 0.24 ± 0.05 | – | – | no significant inhibition | 1.9 ± 0.29 | – | – | 181 | 17 ± 3.7 | 1 ± 0.23 | 28 ± 6.5 | 1.4 ± 0.33 |
